Test results from PMC10016038, “Enhanced Endosomal Signaling and Desensitization of GLP-1R vs GIPR in Pancreatic Beta Cells” (Endocrinology, 2023).

Tests used:
GIPR-NanoLuc = test: Rab5-Venus bystander NanoBRET (early endosome), GIPR; type: cell-based; settings: n = 5
Description: GLP-1R-NanoLuc was generated in house by polymerase chain reaction (PCR) cloning of the NanoLuciferase sequence from pcDNA3.1-ccdB-NanoLuc (a gift from Prof. Mikko Taipale; Addgene plasmid # 87067) onto the C-terminus end of the SNAP-GLP-1R vector (CisBio), followed by site-directed mutagenesis of the GLP-1R stop codon. GIPR-NanoLuc was subsequently cloned in house by exchanging the GLP-1R for the GIPR in the GLP-1R-NanoLuc construct. KRAS- and Rab5-Venus plasmids were a gift from Prof. Kevin Pfleger, University of Western Australia. The INS-1 832/3 GLP-1R KO and GIPR KO cells were seeded in 12-well plates and co-transfected with 0.2 µg KRAS-Venus and 0.1 µg GLP-1R- or GIPR-NanoLuc, respectively, or 0.5 µg Rab5-Venus and 0.1 µg GLP-1R- or GIPR-NanoLuc, respectively.
All NanoBiT and NanoBRET readings were obtained in a Flexstation 3 plate reader. Briefly, 24 hours after transfection, cells were detached, resuspended in NanoGlo Live Cell Reagent (Promega) with furimazine (1:20 dilution) and seeded into white 96-well half-area plates. […] Readings were normalized to well baseline and then to average vehicle-induced signal to establish the agonist-induced effect. AUCs from response curves were calculated for each agonist concentration and fitted to four-parameter curves using Prism 9 (GraphPad).
Figure 2. Endosomal vs plasma membrane localization of GLP-1R compared with GIPR in beta cells. […]

[1] = system: calcium response in purified WT mouse islets; test: Calcium assay, WT mouse islets; type: cell-based; settings: Cal-520 AM; 100 nM; n = 4
Procedure: Nondiabetic mice of both sexes were used for islet isolation. Briefly, pancreata were infused via the common bile duct with RPMI-1640 medium containing 1 mg/mL collagenase from Clostridium histolyticum (Nordmark Biochemicals), dissected, and incubated in a water bath at 37 °C for 10 minutes. Islets were subsequently washed and purified using a Histopaque gradient (Histopaque-1119, 11191, Sigma-Aldrich, and Histopaque-1083, 10831, Sigma-Aldrich). Isolated islets were allowed to recover overnight at 37 °C in 5% CO2 in RPMI-1640 supplemented with 10% FBS and 1% penicillin/streptomycin. […]
Imaging of INS-1 832/3 cells or whole-islet Ca^2+ dynamics was performed as follows: cells or Matrigel-encased islets from individual animals were loaded with the Ca^2+ responsive dye Cal-520 AM (AAT Bioquest), pre-incubated for 1 hour in KRBH G6, and imaged in MatTek glass bottom dishes every 6 second at 488 nm using a Nikon Eclipse Ti microscope with an ORCA-Flash 4.0 camera (Hamamatsu) and Metamorph software (Molecular Devices) while maintained at 37 °C on a heated stage. Raw fluorescence intensity traces from cell-occupied areas or islet ROIs were extracted using Fiji. Responses were plotted relative to the average fluorescence intensity during the 6 mM glucose baseline period, before agonist addition. […]

SNAP-GIPR [2] = test: Nb37 bystander NanoBiT, plasma membrane (CAAX), GIPR; type: cell-based, human; settings: 30-minute AUC, n = 4
Description: (§1) The Nb37 assay constructs were kindly provided by Prof. Asuka Inoue, Tohoku University, Japan. Nb37 (gene synthesized by GenScript with codon optimization) was C-terminally fused to SmBiT with a 15 amino acid flexible linker ([…]), and the resulting construct referred to as Nb37-SmBiT. The C-terminal KRAS CAAX motif ([…]) was N-terminally fused with LgBiT (LgBiT-CAAX). The Endofin FYVE domain (amino acid region Gln739-Lys806) was C-terminally fused with LgBiT (Endofin-LgBiT). Gαs (human, short isoform), Gβ1 (human), Gγ2 (human), and RIC8B (human, isoform 2) plasmids were inserted into pcDNA3.1 or pCAGGS expression plasmid vectors. INS-1 832/3 GLP-1R KO or GIPR KO cells were seeded in 6-well plates and co-transfected with 0.1 μg SNAP-GLP-1R or SNAP-GIPR, 0.5 μg Gαs, Gβ1, and Gγ2, 0.1 μg RIC8B, 0.1 μg CAAX-LgBiT or 0.5 μg Endofin-LgBiT with 0.1 μg or 0.5 μg Nb37-SmBiT, respectively, with 0.8 µg pcDNA3.1 added to the former to equalize DNA content.
(§2) All NanoBiT and NanoBRET readings were obtained in a Flexstation 3 plate reader. […] Readings were normalized to well baseline and then to average vehicle-induced signal to establish the agonist-induced effect. AUCs from response curves were calculated for each agonist concentration and fitted to four-parameter curves using Prism 9 (GraphPad). […]

SNAP-GIPR [3] = test: Nb37 bystander NanoBiT, endosome (Endofin), GIPR; type: cell-based, human; settings: Endofin-LgBiT, n = 4
Description: as §1, §2

SNAP-tagged human GLP-1R = SNAP-tagged human GLP-1R (Homo sapiens, UniProt P43220); test: TR-FRET receptor clustering, SNAP-GLP-1R; type: cell-based; settings: 100 nM, 37 °C, n = 4
SNAP-tagged human GLP-1R, sequence (P43220 24-463): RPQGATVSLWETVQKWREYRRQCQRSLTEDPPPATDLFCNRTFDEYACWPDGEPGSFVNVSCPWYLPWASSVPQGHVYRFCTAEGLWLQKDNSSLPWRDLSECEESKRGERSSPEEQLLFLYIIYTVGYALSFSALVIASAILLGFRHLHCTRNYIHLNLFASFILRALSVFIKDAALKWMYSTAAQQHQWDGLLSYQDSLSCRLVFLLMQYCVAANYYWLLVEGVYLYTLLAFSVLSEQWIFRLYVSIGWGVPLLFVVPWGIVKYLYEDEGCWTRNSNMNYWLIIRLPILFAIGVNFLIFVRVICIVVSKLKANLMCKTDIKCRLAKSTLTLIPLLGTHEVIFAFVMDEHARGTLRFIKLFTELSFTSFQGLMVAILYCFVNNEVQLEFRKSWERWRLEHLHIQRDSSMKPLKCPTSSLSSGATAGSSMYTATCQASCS

Substance: GIP(1-42)
- Agonist-mediated redistribution of GIPR to Rab5-positive early endosomes (GIPR-NanoLuc): virtually absent
- Calcium influx, GIP vs GLP-1, primary islets [1]: significant increase
- Recruitment of Nb37 to active GIPRs vs GLP-1Rs within the plasma membrane (SNAP-GIPR [2]): no significant differences
- GIPR endosomal activity, Emax response vs GLP-1R (SNAP-GIPR [3]): profoundly reduced
- GIPR potency for endosomal signaling vs GLP-1R (SNAP-GIPR [3]): increased potency
- GLP-1R clustering (SNAP-tagged human GLP-1R): not detectable
